Experimental data as given in the NIST ThermoML archive (doi:10.1021/je200811n).

Conditions: Hot wire method

C=C(F)C(F)(F)F [2,3,3,3-tetrafluoro-1-propene]
Conditions | thermal conductivity [W/m/K]
241.92 K, 6085 kPa, Liquid | 0.08525
241.92 K, 10976 kPa, Liquid | 0.08707
241.93 K, 15764 kPa, Liquid | 0.08965
241.94 K, 69 kPa, Gas | 0.00942
241.95 K, 77 kPa, Gas | 0.00944
241.95 K, 20987 kPa, Liquid | 0.09158
241.97 K, 86 kPa, Gas | 0.00944
242 K, 880 kPa, Liquid | 0.08218
242.01 K, 6088 kPa, Liquid | 0.08496
242.01 K, 10981 kPa, Liquid | 0.08718
242.02 K, 15753 kPa, Liquid | 0.08918
242.19 K, 69 kPa, Gas | 0.00931
242.2 K, 78 kPa, Gas | 0.00934
242.22 K, 87 kPa, Gas | 0.00935
242.34 K, 883 kPa, Liquid | 0.08243
242.34 K, 10985 kPa, Liquid | 0.08732
242.34 K, 15757 kPa, Liquid | 0.08916
242.35 K, 6087 kPa, Liquid | 0.08514
242.35 K, 20980 kPa, Liquid | 0.09106
242.35 K, 21022 kPa, Liquid | 0.09102
242.46 K, 15754 kPa, Liquid | 0.08876
242.47 K, 69 kPa, Gas | 0.00926
242.47 K, 78 kPa, Gas | 0.00926
242.47 K, 886 kPa, Liquid | 0.08219
242.47 K, 6087 kPa, Liquid | 0.08483
242.47 K, 10989 kPa, Liquid | 0.08709
242.5 K, 87 kPa, Gas | 0.00928
242.52 K, 87 kPa, Gas | 0.00925
242.54 K, 68 kPa, Gas | 0.00927
242.54 K, 76 kPa, Gas | 0.00929
242.8 K, 20976 kPa, Liquid | 0.09105
242.81 K, 10986 kPa, Liquid | 0.08711
242.81 K, 15750 kPa, Liquid | 0.08896
242.81 K, 21021 kPa, Liquid | 0.09106
242.83 K, 6086 kPa, Liquid | 0.08481
242.85 K, 891 kPa, Liquid | 0.08226
242.88 K, 87 kPa, Gas | 0.00926
242.9 K, 77 kPa, Gas | 0.00929
242.91 K, 68 kPa, Gas | 0.0093
242.94 K, 15756 kPa, Liquid | 0.08889
242.96 K, 10985 kPa, Liquid | 0.08695
242.98 K, 6086 kPa, Liquid | 0.08445
243 K, 892 kPa, Liquid | 0.082
243.28 K, 86 kPa, Gas | 0.00928
243.29 K, 21014 kPa, Liquid | 0.09132
243.3 K, 77 kPa, Gas | 0.0093
243.3 K, 20966 kPa, Liquid | 0.09102
243.31 K, 69 kPa, Gas | 0.00933
243.32 K, 10987 kPa, Liquid | 0.08693
243.32 K, 15749 kPa, Liquid | 0.0891
243.35 K, 6084 kPa, Liquid | 0.08459
243.38 K, 894 kPa, Liquid | 0.08224
243.47 K, 15756 kPa, Liquid | 0.08884
243.5 K, 10983 kPa, Liquid | 0.08672
243.53 K, 6087 kPa, Liquid | 0.0843
243.57 K, 898 kPa, Liquid | 0.08198
243.7 K, 86 kPa, Gas | 0.00931
243.73 K, 78 kPa, Gas | 0.00931
243.75 K, 69 kPa, Gas | 0.00935
243.84 K, 20954 kPa, Liquid | 0.09109
243.85 K, 21009 kPa, Liquid | 0.09114
243.87 K, 15753 kPa, Liquid | 0.08885
243.9 K, 10980 kPa, Liquid | 0.0868
243.94 K, 6082 kPa, Liquid | 0.08438
243.98 K, 898 kPa, Liquid | 0.08174
244.07 K, 15757 kPa, Liquid | 0.08866
244.11 K, 10979 kPa, Liquid | 0.08646
244.16 K, 86 kPa, Gas | 0.00935
244.16 K, 6088 kPa, Liquid | 0.08418
244.2 K, 78 kPa, Gas | 0.00935
244.21 K, 900 kPa, Liquid | 0.08153
244.22 K, 69 kPa, Gas | 0.00937
251.4 K, 100 kPa, Gas | 0.0102
251.41 K, 121 kPa, Gas | 0.01025
251.42 K, 129 kPa, Gas | 0.01024
251.64 K, 100 kPa, Gas | 0.01009
251.65 K, 121 kPa, Gas | 0.01014
251.66 K, 129 kPa, Gas | 0.01016
251.9 K, 121 kPa, Gas | 0.00997
251.91 K, 100 kPa, Gas | 0.01002
251.91 K, 121 kPa, Gas | 0.01007
251.91 K, 130 kPa, Gas | 0.01
251.92 K, 129 kPa, Gas | 0.01009
251.93 K, 100 kPa, Gas | 0.00998
252.23 K, 121 kPa, Gas | 0.00999
252.23 K, 130 kPa, Gas | 0.00999
252.28 K, 100 kPa, Gas | 0.01003
252.6 K, 122 kPa, Gas | 0.01002
252.6 K, 130 kPa, Gas | 0.01
252.67 K, 100 kPa, Gas | 0.01006
253 K, 129 kPa, Gas | 0.01005
253.01 K, 121 kPa, Gas | 0.01006
253.09 K, 100 kPa, Gas | 0.01007
253.43 K, 129 kPa, Gas | 0.01006
253.45 K, 121 kPa, Gas | 0.01008
253.53 K, 100 kPa, Gas | 0.0101
261.38 K, 995 kPa, Liquid | 0.07662
261.4 K, 996 kPa, Liquid | 0.07661
261.41 K, 6311 kPa, Liquid | 0.07964
261.48 K, 992 kPa, Liquid | 0.07655
261.48 K, 996 kPa, Liquid | 0.07656
261.5 K, 6309 kPa, Liquid | 0.07953
261.84 K, 987 kPa, Liquid | 0.07643
261.85 K, 6313 kPa, Liquid | 0.07948
261.87 K, 11445 kPa, Liquid | 0.08189
261.88 K, 21642 kPa, Liquid | 0.0867
261.96 K, 983 kPa, Liquid | 0.07514
261.97 K, 1005 kPa, Liquid | 0.07519
261.97 K, 6311 kPa, Liquid | 0.07846
261.97 K, 11446 kPa, Liquid | 0.0813
261.98 K, 21635 kPa, Liquid | 0.08614
262.35 K, 11445 kPa, Liquid | 0.08085
262.35 K, 16435 kPa, Liquid | 0.08308
262.35 K, 21632 kPa, Liquid | 0.08538
262.36 K, 6309 kPa, Liquid | 0.0784
262.37 K, 990 kPa, Liquid | 0.0754
262.38 K, 999 kPa, Liquid | 0.07563
262.48 K, 21630 kPa, Liquid | 0.08542
262.49 K, 11446 kPa, Liquid | 0.08082
262.49 K, 16441 kPa, Liquid | 0.08301
262.51 K, 984 kPa, Liquid | 0.07532
262.51 K, 6308 kPa, Liquid | 0.07834
262.53 K, 1003 kPa, Liquid | 0.0754
262.87 K, 94 kPa, Gas | 0.01103
262.87 K, 141 kPa, Gas | 0.01112
262.87 K, 180 kPa, Gas | 0.01121
262.87 K, 21632 kPa, Liquid | 0.08568
262.89 K, 16441 kPa, Liquid | 0.0831
262.9 K, 11444 kPa, Liquid | 0.08074
262.93 K, 6308 kPa, Liquid | 0.07833
262.95 K, 981 kPa, Liquid | 0.07547
262.97 K, 1000 kPa, Liquid | 0.07554
263.04 K, 21629 kPa, Liquid | 0.08528
263.06 K, 16439 kPa, Liquid | 0.0831
263.08 K, 11447 kPa, Liquid | 0.08051
263.1 K, 94 kPa, Gas | 0.01092
263.1 K, 139 kPa, Gas | 0.01099
263.1 K, 178 kPa, Gas | 0.01109
263.11 K, 6306 kPa, Liquid | 0.07818
263.14 K, 981 kPa, Liquid | 0.07525
263.15 K, 1006 kPa, Liquid | 0.07526
263.3 K, 186 kPa, Gas | 0.01073
263.33 K, 145 kPa, Gas | 0.01079
263.34 K, 176 kPa, Gas | 0.01103
263.35 K, 137 kPa, Gas | 0.01093
263.36 K, 94 kPa, Gas | 0.01083
263.41 K, 93 kPa, Gas | 0.01084
263.45 K, 21625 kPa, Liquid | 0.0853
263.47 K, 16441 kPa, Liquid | 0.08318
263.51 K, 11446 kPa, Liquid | 0.08071
263.55 K, 6310 kPa, Liquid | 0.07796
263.59 K, 977 kPa, Liquid | 0.0751
263.61 K, 184 kPa, Gas | 0.01083
263.61 K, 1002 kPa, Liquid | 0.07516
263.65 K, 21628 kPa, Liquid | 0.08509
263.66 K, 143 kPa, Gas | 0.01082
263.68 K, 16436 kPa, Liquid | 0.08284
263.72 K, 11448 kPa, Liquid | 0.08052
263.76 K, 94 kPa, Gas | 0.01087
263.77 K, 6312 kPa, Liquid | 0.07776
263.83 K, 978 kPa, Liquid | 0.07472
263.83 K, 1003 kPa, Liquid | 0.0748
263.97 K, 181 kPa, Gas | 0.01086
264.03 K, 141 kPa, Gas | 0.01087
264.1 K, 21626 kPa, Liquid | 0.08524
264.13 K, 94 kPa, Gas | 0.01089
264.14 K, 16440 kPa, Liquid | 0.08287
264.18 K, 11446 kPa, Liquid | 0.08043
264.33 K, 21622 kPa, Liquid | 0.08504
264.34 K, 179 kPa, Gas | 0.01089
264.38 K, 16435 kPa, Liquid | 0.08267
264.41 K, 140 kPa, Gas | 0.01091
264.42 K, 11443 kPa, Liquid | 0.08017
264.55 K, 94 kPa, Gas | 0.01091
264.75 K, 177 kPa, Gas | 0.01092
264.83 K, 138 kPa, Gas | 0.01094
264.99 K, 94 kPa, Gas | 0.01095
271.81 K, 106 kPa, Gas | 0.01176
271.82 K, 144 kPa, Gas | 0.01183
271.83 K, 200 kPa, Gas | 0.01195
272.04 K, 105 kPa, Gas | 0.01163
272.04 K, 200 kPa, Gas | 0.01186
272.05 K, 143 kPa, Gas | 0.0117
272.22 K, 246 kPa, Gas | 0.01157
272.22 K, 271 kPa, Gas | 0.01155
272.24 K, 200 kPa, Gas | 0.01151
272.28 K, 200 kPa, Gas | 0.01178
272.29 K, 104 kPa, Gas | 0.01154
272.29 K, 148 kPa, Gas | 0.01151
272.3 K, 141 kPa, Gas | 0.01161
272.34 K, 108 kPa, Gas | 0.01153
272.5 K, 272 kPa, Gas | 0.01161
272.54 K, 200 kPa, Gas | 0.01154
272.6 K, 146 kPa, Gas | 0.01157
272.67 K, 107 kPa, Gas | 0.01162
272.83 K, 272 kPa, Gas | 0.0116
272.84 K, 263 kPa, Gas | 0.01161

Liquid
Conditions | thermal conductivity [W/m/K]
243.15 K | 0.08189
253.15 K | 0.07836
263.15 K | 0.07493
